According to US20020061836A1, “Methods for altering SXR activation using peptide mimetic HIV protease inhibitor SXR ligands” (priority 2000, published 2002):
Where two headings read alike, the source gives them in different places.

Key:
[1] = biological target: T1, human SXR ligand binding domain (Homo sapiens, UniProt O75469); assay: Gal-L-SXR (Gal-SXR) Gal4 reporter transient transfection assay in CV-1 cells; details: CV-1 cells; for activation of Gal-L-SXR chimeric receptor: 10 μM compound (LG268 100 nM), about 24 h
T1 sequence (O75469 107-434 limits assumed): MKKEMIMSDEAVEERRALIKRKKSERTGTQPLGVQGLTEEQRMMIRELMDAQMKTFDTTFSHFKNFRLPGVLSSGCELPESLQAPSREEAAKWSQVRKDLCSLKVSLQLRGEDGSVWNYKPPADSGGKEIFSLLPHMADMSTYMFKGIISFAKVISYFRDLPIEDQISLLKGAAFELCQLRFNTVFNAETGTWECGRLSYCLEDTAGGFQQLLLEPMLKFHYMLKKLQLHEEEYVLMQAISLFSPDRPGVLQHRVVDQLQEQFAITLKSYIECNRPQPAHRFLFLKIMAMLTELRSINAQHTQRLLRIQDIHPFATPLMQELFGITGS
Excerpt: Use of a standard model heterologous cell system to reconstitute SXR agonist and antagonist responsiveness allows SXR activity to be monitored in the absence of the metabolic events which may obscure the process being tested. Any suitable heterologous cell system may be used to test the activation of potential or known SXR nuclear receptor ligands, as long as the cells are capable of being transiently transfected with the appropriate DNA which expresses receptors, reporter genes, response elements, and the like. Cells which constitutively express one or more of the necessary genes may be used as well. Cell systems that are suitable for the transient expression of mammalian genes and which are amenable to maintenance in culture are well known to those skilled in the art. […] Suitable reporter gene constructs are well known to skilled workers in the fields of biochemistry and molecular biology. Activity of the reporter gene can be conveniently normalized to the internal control and the data plotted as fold activation relative to untreated cells.
(§1) The Gal4 reporter activity was normalized to the internal β-galactosidase control and the data plotted as fold activation relative to untreated cells. All transfections contained the Gal4 reporter and a β-galactosidase expression vector as an internal control.
(§2) Izbicka et al., Ann. Oncol.
(§3) Gal-PXR containing the ligand binding domain of mouse PXR (#AF031814) was obtained from Bruce Blumberg.
Transient Transffection Assays—CV-1 cells were grown and transfected as described.

mouse PXR = mouse PXR (Mus musculus, UniProt O54915); details: 10 μM
Method: as §3
(§4) After 24 hour exposure to the compounds, total RNA was prepared and analyzed by northern analysis using probes for MRP2 and the GAPDH control. […] CV-1 cells were transiently transfected with a Gal4 reporter and a vector expressing Gal4-fused to the ligand binding domain of human SXR (Gal-SXR).
CV-1 cells were transiently transfected with Gal-SXR as in FIG. 21 above. […] Fold activation was determined relative to untreated cells. […] CV-1 cells were transiently transfected with Gal-PXR as in FIG. 21 above. […] FIG. 26: Coactivator recruitment by various HIV protease inhibitors SXR. […] Specific binding was measured as described in the Materials and Methods. Error bars indicate the range of duplicate data points.

[2] = tested on: LS180 human colon cancer cells; assay: [14C]-paclitaxel efflux from pretreated LS180 cells; assay type: cell-based; details: LS180 cells induced 48 hours with 10 μM paclitaxel, 10 μM docetaxel or 100 nM LG268
Method: Taxane-induced drug efflux was measured using pretreated LS180 human colon cancer cells. The rate of drug efflux was measured. […] Individual data points are the means of triplicate determinations, error bars represent standard deviation and the lines are lines of regression. The slope of each line (rate of efflux) was compared to the slope obtained in the control (untreated) cells using an analysis of covariance. […] The entire experiment was performed three times with similar results. […] The cells were then incubated in media supplemented with 10 μM [^14C]-paclitaxel (4.9 μCi/umol, Moravek Biochemicals, Brea, Calif.) for 15 minutes. The uptake of ^14C-paclitaxel reached maximum levels at 10-12 minutes (data not shown). After 15 minutes, the cells were then rapidly centrifuged through silicone oil to remove all traces of extracellular radioactivity, resuspended in fresh media, and cell counts determined. At multiple time points over the next 10 minutes, triplicate aliquots of the cell suspension (approx. 1×10^5 cells/aliquot) were again centrifuged through silicon oil and the radioactivity in the cell pellet measured by quench-corrected liquid scintillation counting. The rate of [^14C]-paclitaxel efflux was determined as the slope of the [^14C]-paclitaxel versus time plots using all data. The slope for each inducer was compared to the slope obtained in the control (untreated) cells using an analysis of covariance.

mouse PPARα = biological target: T2, mouse PPARα (Mus musculus, UniProt P23204); assay: Nuclear receptor specificity transfection assay; assay type: cell-based
T2 construct: expressed in transfected cells; host or cells: CV-1
T2 sequence (P23204 1-468): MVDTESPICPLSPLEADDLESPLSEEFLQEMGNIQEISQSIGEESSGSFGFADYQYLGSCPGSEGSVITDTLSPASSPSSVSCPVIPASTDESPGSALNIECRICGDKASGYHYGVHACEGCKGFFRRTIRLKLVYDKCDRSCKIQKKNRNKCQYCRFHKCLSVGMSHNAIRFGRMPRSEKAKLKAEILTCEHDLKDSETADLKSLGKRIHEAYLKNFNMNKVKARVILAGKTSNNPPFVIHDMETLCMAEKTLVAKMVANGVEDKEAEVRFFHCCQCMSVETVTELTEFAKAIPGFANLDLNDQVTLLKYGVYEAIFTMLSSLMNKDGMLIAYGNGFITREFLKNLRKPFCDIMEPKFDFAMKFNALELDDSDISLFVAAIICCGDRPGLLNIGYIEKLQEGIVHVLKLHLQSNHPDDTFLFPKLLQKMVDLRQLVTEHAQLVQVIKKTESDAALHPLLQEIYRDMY

mouse CARβ = biological target: T3, mouse CARβ (Mus musculus, UniProt O35627); assay: Nuclear receptor specificity transfection assay / LXRE×3-TK-luc reporter with CARβ in CV-1 cells; assay type: cell-based
T3 sequence (O35627 1-358): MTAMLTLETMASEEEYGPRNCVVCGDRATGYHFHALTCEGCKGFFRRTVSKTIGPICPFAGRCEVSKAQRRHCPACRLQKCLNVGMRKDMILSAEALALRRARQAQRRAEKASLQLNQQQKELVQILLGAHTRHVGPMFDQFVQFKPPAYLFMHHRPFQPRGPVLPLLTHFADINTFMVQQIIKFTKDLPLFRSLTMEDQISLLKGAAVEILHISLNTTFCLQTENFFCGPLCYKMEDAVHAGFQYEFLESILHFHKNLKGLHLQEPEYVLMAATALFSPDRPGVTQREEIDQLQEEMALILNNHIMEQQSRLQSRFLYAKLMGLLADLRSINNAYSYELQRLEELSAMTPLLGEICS

mouse PPARδ = biological target: T4, mouse PPARδ (Mus musculus, UniProt P35396); assay: Nuclear receptor specificity transfection assay; assay type: cell-based
T4 construct: expressed in transfected cells; host or cells: CV-1
T4 sequence (P35396 1-440): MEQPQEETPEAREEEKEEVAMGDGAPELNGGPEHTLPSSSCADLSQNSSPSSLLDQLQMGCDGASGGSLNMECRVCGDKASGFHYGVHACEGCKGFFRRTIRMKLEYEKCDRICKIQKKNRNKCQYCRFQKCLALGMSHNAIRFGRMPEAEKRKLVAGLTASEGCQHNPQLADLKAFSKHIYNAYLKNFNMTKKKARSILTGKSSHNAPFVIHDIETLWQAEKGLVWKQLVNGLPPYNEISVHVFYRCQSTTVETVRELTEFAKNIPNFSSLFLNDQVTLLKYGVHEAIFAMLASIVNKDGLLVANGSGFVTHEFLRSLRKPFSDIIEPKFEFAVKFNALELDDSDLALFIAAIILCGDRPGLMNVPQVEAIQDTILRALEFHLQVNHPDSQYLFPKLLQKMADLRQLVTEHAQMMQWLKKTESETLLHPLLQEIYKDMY

human LXRα = biological target: T5, human LXRα (Homo sapiens, UniProt Q13133); assay: Nuclear receptor specificity transfection assay; assay type: cell-based
T5 construct: expressed in transfected cells; host or cells: CV-1
T5 sequence (Q13133 1-447): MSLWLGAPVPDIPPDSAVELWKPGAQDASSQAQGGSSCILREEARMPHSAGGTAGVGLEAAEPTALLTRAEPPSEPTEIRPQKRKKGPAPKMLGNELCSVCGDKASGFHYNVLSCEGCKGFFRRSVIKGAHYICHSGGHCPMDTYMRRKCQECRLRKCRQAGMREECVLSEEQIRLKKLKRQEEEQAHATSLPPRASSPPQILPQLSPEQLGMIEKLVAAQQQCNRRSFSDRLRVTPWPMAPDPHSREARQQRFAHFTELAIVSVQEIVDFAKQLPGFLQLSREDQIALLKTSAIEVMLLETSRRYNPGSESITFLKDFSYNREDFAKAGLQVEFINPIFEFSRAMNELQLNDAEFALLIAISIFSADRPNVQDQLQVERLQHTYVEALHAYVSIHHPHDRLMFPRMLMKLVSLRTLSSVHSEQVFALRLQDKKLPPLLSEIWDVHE

MRP2 mRNA = assay: Northern analysis of MRP2 expression in primary human hepatocytes; assay type: cell-based
Method: (§5) Northern Blot Analysis—Primary human hepatocytes were obtained from Clonetics (Walkersville, Md.) and cultured according to the vendors instructions. Cells were treated with the indicated compounds for 24 hours and total RNA was isolated using the Trizol reagent.
as §4
(§6) After 24 hour exposure to the compounds, total RNA was prepared and analyzed by northern analysis using probes for MDR1 and the GAPDH control.

[3] = tested on: thyroid hormone receptor β (TRβ); details: 3 μM ritonavir
human ERα = human ERα (Homo sapiens, UniProt P03372); details: 3 μM ritonavir
[4] = biological target: T6, human RXRα ligand binding domain (Homo sapiens, UniProt P19793); assay: Gal-L-RXR Gal4 reporter transient transfection assay in CV-1 cells; assay type: cell-based
T6 construct: expressed in transfected cells; host or cells: CV-1
T6 sequence (P19793 203-462): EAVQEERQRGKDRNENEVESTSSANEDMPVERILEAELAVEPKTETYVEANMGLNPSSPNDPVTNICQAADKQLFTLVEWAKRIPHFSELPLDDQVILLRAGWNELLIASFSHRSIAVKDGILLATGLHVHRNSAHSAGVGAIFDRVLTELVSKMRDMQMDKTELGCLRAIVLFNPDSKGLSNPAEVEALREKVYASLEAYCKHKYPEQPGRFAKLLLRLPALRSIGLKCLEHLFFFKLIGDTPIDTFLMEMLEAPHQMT
Excerpt: as §1

human RARα = biological target: T7, human RARα (Homo sapiens, UniProt P10276); assay: Nuclear receptor specificity transfection assay; assay type: cell-based; details: 3 μM ritonavir
T7 construct: expressed in transfected cells; host or cells: CV-1

FXR = biological target: T8, FXR (Homo sapiens, UniProt Q96RI1); assay: Nuclear receptor specificity transfection assay; assay type: cell-based; details: 3 μM ritonavir
T8 construct: expressed in transfected cells; host or cells: CV-1

mouse PPARγ = biological target: T9, mouse PPARγ (Mus musculus, UniProt P37238); assay: Nuclear receptor specificity transfection assay; assay type: cell-based; details: 3 μM ritonavir
T9 construct: expressed in transfected cells; host or cells: CV-1

MDR1 mRNA = assay: Northern analysis of MDR1 expression in human LS180 cells; assay type: cell-based; details: 3 μM ritonavir, 24 hour
Method: as §2, §5, §6

Sequence of mouse PXR (O54915 143-430 limits assumed): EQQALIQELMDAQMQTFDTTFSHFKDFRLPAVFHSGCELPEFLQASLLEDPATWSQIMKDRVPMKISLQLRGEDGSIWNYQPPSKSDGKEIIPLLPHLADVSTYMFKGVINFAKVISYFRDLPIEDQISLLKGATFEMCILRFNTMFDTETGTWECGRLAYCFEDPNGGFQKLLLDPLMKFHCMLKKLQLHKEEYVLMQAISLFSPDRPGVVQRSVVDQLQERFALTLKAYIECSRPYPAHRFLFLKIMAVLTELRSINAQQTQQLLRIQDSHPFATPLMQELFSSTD
T8 sequence (Q96RI1 whole entry, species assumed): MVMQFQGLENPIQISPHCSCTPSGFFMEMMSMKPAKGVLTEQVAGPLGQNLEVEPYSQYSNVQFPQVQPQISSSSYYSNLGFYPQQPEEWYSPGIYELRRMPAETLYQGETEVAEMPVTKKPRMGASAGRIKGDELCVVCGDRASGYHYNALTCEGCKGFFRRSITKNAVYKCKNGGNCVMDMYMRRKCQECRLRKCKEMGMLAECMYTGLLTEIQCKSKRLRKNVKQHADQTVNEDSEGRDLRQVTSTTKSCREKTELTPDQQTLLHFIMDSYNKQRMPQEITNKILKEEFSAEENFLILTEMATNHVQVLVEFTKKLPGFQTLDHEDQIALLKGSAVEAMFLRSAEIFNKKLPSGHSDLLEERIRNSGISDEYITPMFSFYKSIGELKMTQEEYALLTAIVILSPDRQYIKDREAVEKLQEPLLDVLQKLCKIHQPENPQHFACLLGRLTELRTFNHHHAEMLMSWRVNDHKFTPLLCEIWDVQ
Sequence of human ERα (P03372 whole entry, the tested form may be a part): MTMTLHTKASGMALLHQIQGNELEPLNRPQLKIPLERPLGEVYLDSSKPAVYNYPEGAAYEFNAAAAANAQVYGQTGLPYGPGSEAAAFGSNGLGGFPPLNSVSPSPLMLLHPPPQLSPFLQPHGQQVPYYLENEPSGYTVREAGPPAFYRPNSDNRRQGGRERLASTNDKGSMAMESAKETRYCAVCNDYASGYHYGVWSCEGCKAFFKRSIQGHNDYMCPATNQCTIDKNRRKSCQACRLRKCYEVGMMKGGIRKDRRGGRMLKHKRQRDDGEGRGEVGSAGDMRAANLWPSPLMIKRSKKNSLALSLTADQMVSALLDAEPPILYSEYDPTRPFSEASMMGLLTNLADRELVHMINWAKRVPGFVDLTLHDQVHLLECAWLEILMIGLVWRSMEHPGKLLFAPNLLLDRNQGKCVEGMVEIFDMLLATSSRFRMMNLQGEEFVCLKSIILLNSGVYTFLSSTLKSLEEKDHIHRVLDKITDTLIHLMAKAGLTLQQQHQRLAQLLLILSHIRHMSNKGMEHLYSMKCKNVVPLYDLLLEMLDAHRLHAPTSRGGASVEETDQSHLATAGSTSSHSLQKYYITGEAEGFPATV
T9 sequence (P37238 whole entry): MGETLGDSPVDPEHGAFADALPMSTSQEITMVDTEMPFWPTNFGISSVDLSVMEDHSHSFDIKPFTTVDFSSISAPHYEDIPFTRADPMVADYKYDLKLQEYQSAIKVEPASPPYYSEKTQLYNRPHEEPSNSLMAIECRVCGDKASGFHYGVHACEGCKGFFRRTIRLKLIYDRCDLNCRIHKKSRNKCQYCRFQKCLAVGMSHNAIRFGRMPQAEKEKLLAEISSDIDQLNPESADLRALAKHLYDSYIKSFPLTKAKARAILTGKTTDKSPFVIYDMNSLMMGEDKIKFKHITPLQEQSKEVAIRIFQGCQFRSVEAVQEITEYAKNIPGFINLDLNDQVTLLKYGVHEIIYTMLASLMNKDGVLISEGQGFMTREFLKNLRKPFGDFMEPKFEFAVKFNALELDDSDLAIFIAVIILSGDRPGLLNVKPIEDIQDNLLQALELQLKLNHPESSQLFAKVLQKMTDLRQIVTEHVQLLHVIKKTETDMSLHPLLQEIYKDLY
T7 sequence (P10276 whole entry): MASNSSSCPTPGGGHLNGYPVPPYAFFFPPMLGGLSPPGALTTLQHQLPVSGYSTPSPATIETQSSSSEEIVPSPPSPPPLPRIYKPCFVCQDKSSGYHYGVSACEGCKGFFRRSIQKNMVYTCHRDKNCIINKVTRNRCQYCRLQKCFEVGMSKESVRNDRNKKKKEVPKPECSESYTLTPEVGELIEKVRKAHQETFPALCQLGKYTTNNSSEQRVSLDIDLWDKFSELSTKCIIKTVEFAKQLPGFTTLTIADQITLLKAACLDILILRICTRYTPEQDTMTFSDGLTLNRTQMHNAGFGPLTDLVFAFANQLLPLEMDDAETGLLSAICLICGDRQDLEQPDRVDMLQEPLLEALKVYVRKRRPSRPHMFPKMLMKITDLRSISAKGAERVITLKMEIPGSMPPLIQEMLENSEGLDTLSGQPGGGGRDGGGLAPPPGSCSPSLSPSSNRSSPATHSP

Compound: CC(=O)[C@H]1[C@H](C#N)C[C@H]2[C@@H]3CC=C4C[C@@H](O)CC[C@]4(C)[C@H]3CC[C@@]21C
- activation of Gal-SXR ([1]; 2.5 μM hyperforin, 10 μM rifampicin, 3 μM ritonavir, 10 μM PCN): not
- activation of Gal-L-SXR chimeric receptor [1]: not
- fold activation by cognate ligand (positive control) (mouse PXR): 23 fold

Compound: CC(=O)O[C@H]1C(=O)[C@@]2(C)[C@H]([C@H](OC(=O)c3ccccc3)[C@]3(O)C[C@H](OC(=O)[C@H](O)[C@@H](NC(=O)c4ccccc4)c4ccc(O)cc4)C(C)=C1C3(C)C)[C@]1(OC(C)=O)CO[C@@H]1C[C@@H]2O [3′-p-hydroxypaclitaxel]
- activation of Gal-L-SXR chimeric receptor [1]: No activation

Compound: CC(=O)O[C@H]1C(=O)[C@@]2(C)[C@H]([C@H](OC(=O)c3ccccc3)[C@]3(O)C[C@H](OC(=O)[C@H](O)[C@@H](NC(=O)c4ccccc4)c4ccccc4)C(C)=C1C3(C)C)[C@]1(OC(C)=O)CO[C@@H]1[C@@H](O)[C@@H]2O [6α-hydroxypaclitaxel]
- activation of Gal-L-SXR chimeric receptor [1]: No activation

Compound: Cc1cc2c(cc1C1(c3ccc(C(=O)O)cn3)CC1)C(C)(C)CCC2(C)C [LG268]
- rate of [14C]-paclitaxel efflux versus untreated cells [2]: did not differ from controls

Compound: Cc1cccc(Nc2cc(Cl)nc(SCC(=O)O)n2)c1C [Wy 14,643]
- fold activation by cognate ligand (positive control) (mouse PPARα; 5 μM): 13 fold

Compound: C[C@@]12CCC[C@H]1[C@@H]1CC[C@H]3C[C@@H](O)CC[C@]3(C)[C@H]1CC2 [androstanol]
- fold repression by cognate ligand (positive control) (mouse CARβ; 5 μM): 50 fold
- effect on transcriptional activity of CARβ (mouse CARβ; LXRE×3-TK-luc reporter, 5 μM androstanol or 50 nM ET-743): inhibited

Compound: CCCCC[C@H](O)/C=C/[C@@H]1[C@H]2C/C(=C/CCCC(=O)O)C[C@H]2C[C@H]1O [arbaprostacyclin]
- fold activation by cognate ligand (positive control) (mouse PPARδ; 1 μM): 14 fold

Compound: COC(=O)CC[C@@H](C)[C@H]1CC[C@H]2[C@@H]3C[C@H](O)[C@@H]4C[C@H](O)CC[C@]4(C)[C@H]3CC[C@]12C [hyodeoxycholic acid methyl ester]
- fold activation by cognate ligand (positive control) (human LXRα; 30 μM): 4.5 fold

Compound: CC(C)c1nc(CN(C)C(=O)N[C@H](C(=O)N[C@@H](Cc2ccccc2)C[C@H](O)[C@H](Cc2ccccc2)NC(=O)OCc2cncs2)C(C)C)cs1 [ritonavir]
- MRP2 mRNA expression (MRP2 mRNA; primary human hepatocytes, 3 μM ritonavir, 24 hour): activated expression
- effect on CARβ reporter activity (mouse CARβ; 3 μM ritonavir): no effect
- effect on LXRα reporter activity (human LXRα; 3 μM ritonavir): no effect
- effect on thyroid hormone receptor β reporter activity [3]: no effect
- effect on estrogen receptor α reporter activity (human ERα): no effect
- effect on PPARα reporter activity (mouse PPARα; 3 μM ritonavir): no effect
- effect on RXRα reporter activity ([4]; 3 μM ritonavir): no effect
- activation of Gal-RXR ([4]; ritonavir dose response, same doses as for SXR): failed to activate
- effect on retinoic acid receptor α reporter activity (human RARα): no effect
- effect on FXR reporter activity (FXR): no effect
- effect on PPARγ reporter activity (mouse PPARγ): no effect
- effect on PPARδ reporter activity (mouse PPARδ; 3 μM ritonavir): no effect
- MDR1 mRNA expression (MDR1 mRNA): strongly induced

Compound: hyperforin
- MRP2 mRNA expression (MRP2 mRNA): induced expression
